From patent US8789785B2, “Device for micronization of solid materials and its use” (Lambano Trading Limited, priority 2010, dated 2014) come the findings set out here.

The structures appear in SMILES notation.

A short description of this series: bioavailability of the substance micronized with the device. Format: in vivo. The settings on record: after micronization with the device from the present invention. The source says:
As an example of pharmaceutically active substance herein is mentioned anti-inflammatory substance alclometasone-17,21-dipropionate which was successfully micronized with the device from the present invention yielding the product of increased bioavailability.

Consider `CCC(=O)OCC(=O)[C@@]1(OC(=O)CC)[C@H](C)C[C@H]2[C@H]3[C@H]([C@@H](O)C[C@@]21C)[C@@]1(C)C=CC(=O)C=C1C[C@H]3Cl` [alclometasone-17,21-dipropionate], for which the “bioavailability of the micronized product” value is listed as “increased”.
